Results taken from US20250017935A1, “7,8-DIHYDRO-5H-1,6-NAPHTHYRIDINE DERIVATIVES AS POSITIVE ALLOSTERIC MODULATORS OF THE MUSCARINIC ACETYLCHOLINE RECEPTOR M4 FOR TREATING NEUROLOGICAL AND PSYCHIATRIC DISORDERS” (Vanderbilt University, priority 2021, published 2025).

Target: T1, Human M4 (Homo sapiens, UniProt P08173)
T1 construct: expressed in transfected cells; host or cells: CHO-K1 (ATCC), stably expressing hM4 and Gqi5
T1 sequence (P08173 1-479): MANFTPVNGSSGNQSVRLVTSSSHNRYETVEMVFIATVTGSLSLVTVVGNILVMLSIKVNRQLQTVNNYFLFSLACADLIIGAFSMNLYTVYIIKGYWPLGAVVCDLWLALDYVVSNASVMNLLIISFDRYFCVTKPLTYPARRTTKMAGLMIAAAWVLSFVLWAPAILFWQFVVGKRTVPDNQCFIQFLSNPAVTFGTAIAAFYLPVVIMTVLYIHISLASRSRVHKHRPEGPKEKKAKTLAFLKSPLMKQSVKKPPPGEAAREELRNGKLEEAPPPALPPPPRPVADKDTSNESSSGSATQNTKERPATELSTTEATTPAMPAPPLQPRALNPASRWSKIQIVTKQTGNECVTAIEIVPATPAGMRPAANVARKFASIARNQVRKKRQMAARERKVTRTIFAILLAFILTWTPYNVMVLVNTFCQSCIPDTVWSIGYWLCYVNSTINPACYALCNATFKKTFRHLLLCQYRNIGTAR
Test: mAChR M4 cell-based functional assay (calcium flux, potentiation of EC20 acetylcholine response) in hM4-Gqi5 CHO-K1 cells
Conditions: for Emax at 30 µM: % ACh maximum at 30 μM, human M4 CHO-K1 cells; for EC50: CHO-K1 cells transfected with human M4 and Gqi5, positive allosteric modulator activity, EC20 acetylcholine
Description: Human M4 cDNA, along with the chimeric G protein Gqi5, were transfected into Chinese hamster ovary (CHO-K1) cells purchased from the American Type Culture Collection using commercially available Lipofectamine 2000 transfection reagent (Dalby, B. et al., Methods (2004) 33(2), 95-103). hM4-Gqi5 cells were grown in Ham's F-12 medium containing 10% heat-inactivated fetal bovine serum (FBS), 20 mM HEPES, 50 μg/mL G418 sulfate (CAS #108321-42-2), and 500 μg/mL Hygromycin B. rM4-Gqi5 cells were grown in DMEM containing 10% heat-inactivated FBS, 20 mM HEPES, 400 μg/mL G418 sulfate, and 500 μg/mL Hygromycin B.
For high throughput measurement of agonist-evoked increases in intracellular calcium, CHO-K1 cells stably expressing muscarinic receptors were plated in growth medium lacking G418 sulfate and hygromycin at 15,000 cells/20 μL/well in Greiner 384-well black-walled, tissue culture (TC)-treated, clear-bottom plates (VWR). Cells were incubated overnight at 37° C. and 5% CO2. The next day, cells were washed using an ELX 405 (BioTek) with assay buffer; the final volume was then aspirated to 20 μL. Next, 20 μL of a 2.3 μM stock of Fluo-4/acetoxymethyl ester (Invitrogen, Carlsbad, CA), prepared as a 2.3 mM stock in DMSO and mixed in a 1:1 ratio with 10% (w/v) Pluronic F-127 and diluted in assay buffer, was added to the wells and the cell plates were incubated for 50 minutes at 37° C. and 5% CO2. Dye was removed by washing with the ELX 405 and the final volume was aspirated to 20 μL. Compound master plates were formatted in an 11 point concentration-response curve (CRC) format (1:3 dilutions) in 100% DMSO with a starting concentration of 10 mM using a BRAVO liquid handler (Agilent). Test compound CRCs were then transferred to daughter plates (240 nL) using the Echo acoustic plate reformatter (Labcyte, Sunnyvale, CA) and then diluted into assay buffer (40 μL) to a 2× stock using a Thermo Fisher Combi (Thermo Fisher Scientific, Waltham, MA).
Calcium flux was measured using the Functional Drug Screening System (FDSS) 6000 or 7000 (Hamamatsu Corporation, Tokyo, Japan) as an increase in the fluorescent static ratio. Compounds were applied to cells (20 μL, 2×) using the automated system of the FDSS at 2-4 seconds into the protocol and the data were collected at 1 Hz. […] Agonist activity was analyzed as a concentration-dependent increase in calcium mobilization upon compound addition. Positive allosteric modulator activity was analyzed as a concentration-dependent increase in the EC20 acetylcholine response. With the acetylcholine EC20 set as baseline, the test compound EC50 is determined as the concentration that produces an increase above baseline of 50% of the maximum increase in acetylcholine response elicted by the test compound. Antagonist activity was analyzed as a concentration-dependent decrease in the EC80 acetylcholine response. Concentration-response curves were generated using a four-parameter logistical equation in XLFit curve fitting software (IDBS, Bridgewater, NJ) for Excel (Microsoft, Redmond, WA) or Prism (GraphPad Software, Inc., San Diego, CA).
Compounds were synthesized as described above. Activity (EC50 and Emax) was determined in the mAChR M4 cell-based functional assay as described above and the data are shown in Table 5. The compound numbers correspond to the compound numbers used in Examples 1-13 and Tables 1, 2, and 3.

Row | SMILES | Emax at 30 µM [%] | EC50 [nM]
1 | Cc1sc2ncnc(N3CCc4ncc(C(F)(F)F)cc4C3)c2c1C [Compound 1, 5,6-dimethyl-4-[3-(trifluoromethyl)-7,8-dihydro-5H-1,6-naphthyridin-6-yl]thieno[2,3-d]pyrimidine] | 85 | 610
2 | Cc1cc2c(N3CCc4ncc(N5CCCn6nccc65)cc4C3)ncnc2s1 [Compound 2, 4-[3-(6,7-dihydro-5H-pyrazolo[1,5-a]pyrimidin-4-yl)-7,8-dihydro-5H-1,6-naphthyridin-6-yl]-6-methyl-thieno[2,3-d]pyrimidine] | 106 | 30
3 | Cc1cc2c(N3CCc4ncc(Oc5ccccc5F)cc4C3)ncnc2s1 [Compound 3, 4-[3-(2-fluorophenoxy)-7,8-dihydro-5H-1,6-naphthyridin-6-yl]-6-methyl-thieno[2,3-d]pyrimidine] | 80 | 630
4 | Cc1csc2c(N3CCc4ncc(-c5cnn(C6CC6)c5)cc4C3)ncnc12 [Compound 4, 4-[3-(1-cyclopropylpyrazol-4-yl)-7,8-dihydro-5H-1,6-naphthyridin-6-yl]-7-methyl-thieno[3,2-d]pyrimidine] | 43 | 770
5 | Cc1ncc(-c2cnc3c(c2)CN(c2ncnc4c(C)csc24)CC3)s1 [Compound 5, 7-methyl-4-[3-(2-methylthiazol-5-yl)-7,8-dihydro-5H-1,6-naphthyridin-6-yl]thieno[3,2-d]pyrimidine] | 35 | 310
6 | Cc1ncc(-c2cnc3c(c2)CN(c2ncnc4sccc24)CC3)s1 [Compound 6, 4-[3-(2-methylthiazol-5-yl)-7,8-dihydro-5H-1,6-naphthyridin-6-yl]thieno[2,3-d]pyrimidine] | 45 | 100
7 | Cc1nc(N2CCc3ncc(C(F)(F)F)cc3C2)c2c(C)c(C)sc2n1 [Compound 7, 2,5,6-trimethyl-4-[3-(trifluoromethyl)-7,8-dihydro-5H-1,6-naphthyridin-6-yl]thieno[2,3-d]pyrimidine] | 88 | 3280
8 | Cc1csc2ncnc(N3CCc4ncc(C(F)(F)F)cc4C3)c12 [Compound 8, 5-methyl-4-[3-(trifluoromethyl)-7,8-dihydro-5H-1,6-naphthyridin-6-yl]thieno[2,3-d]pyrimidine] | 78 | 30
9 | Cc1cc2c(N3CCc4ncc(C(F)(F)F)cc4C3)ncnc2s1 [Compound 9, 6-methyl-4-[3-(trifluoromethyl)-7,8-dihydro-5H-1,6-naphthyridin-6-yl]thieno[2,3-d]pyrimidine] | 76 | 30
10 | FC(F)(F)c1cnc2c(c1)CN(c1ncnc3ccsc13)CC2 [Compound 10, 4-[3-(trifluoromethyl)-7,8-dihydro-5H-1,6-naphthyridin-6-yl]thieno[3,2-d]pyrimidine] | 79 | 120
11 | Cc1csc2c(N3CCc4ncc(C(F)(F)F)cc4C3)ncnc12 [Compound 11, 7-methyl-4-[3-(trifluoromethyl)-7,8-dihydro-5H-1,6-naphthyridin-6-yl]thieno[3,2-d]pyrimidine] | 63 | 500
12 | Cc1cc2c(N3CCc4ncc(-c5cn(C)nc5C)cc4C3)ncnc2s1 [Compound 12, 4-[3-(1,3-dimethylpyrazol-4-yl)-7,8-dihydro-5H-1,6-naphthyridin-6-yl]-6-methyl-thieno[2,3-d]pyrimidine] | 74 | 230
13 | Cc1cc2c(N3CCc4ncc(N5CCOc6ncccc65)cc4C3)ncnc2s1 [Compound 13, 1-[6-(6-methylthieno[2,3-d]pyrimidin-4-yl)-7,8-dihydro-5H-1,6-naphthyridin-3-yl]-2,3-dihydropyrido[2,3-b][1,4]oxazine] | 121 | 70
14 | Cc1ccc(-c2cnc3c(c2)CN(c2ncnc4sc(C)cc24)CC3)cn1 [Compound 14, 6-methyl-4-[3-(6-methyl-3-pyridyl)-7,8-dihydro-5H-1,6-naphthyridin-6-yl]thieno[2,3-d]pyrimidine] | 97 | 190
